According to US11053234B2 (GlaxoSmithKline Intellectual Property Development Limited, priority 2016, dated 2021):
Where a name gives a salt, the structure may show the parent alone.

The compounds below were run against T1, haematopoietic prostaglandin D synthase (H-PGDS) (Homo sapiens, UniProt O60760) (assay: H-PGDS RapidFire high throughput mass spectrometry assay (conversion of PGH2 to PGD2)). Conditions: 10 nM H-PGDS, PGH2 formed in situ by COX-2 from arachidonic acid; read-out: Potency Range (mean pIC50) (converted).
T1 construct: Full length human H-PGDS cDNA (Invitrogen Ultimate ORF 10H13026) was amplified by PCR; 6-His (N); TEV protease cleavage site (N); made in house; host or cells: E. coli BL21 (DE3*), vector pET22b+
Type: biochemical
In short: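 RapidFire SPE–MS read-out calculated percent conversion from relative PGD2 and PGF2α (substrate surrogate) levels. Recombinant full-length human H-PGDS (His-tag, E. coli) turned over PGH2, produced in situ at ˜10 μM by human COX-2 (FLAG-tag, Sf9 cells) acting on arachidonic acid.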

T1 sequence (O60760 whole entry): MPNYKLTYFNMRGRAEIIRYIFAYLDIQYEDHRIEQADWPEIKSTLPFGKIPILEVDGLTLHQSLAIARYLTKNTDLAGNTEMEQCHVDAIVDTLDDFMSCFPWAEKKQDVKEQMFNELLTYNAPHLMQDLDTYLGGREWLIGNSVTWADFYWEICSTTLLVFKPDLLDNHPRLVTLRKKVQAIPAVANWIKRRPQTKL

Compared with `C=C(C)c1cnc(NC(=O)[C@H]2C[C@H](Oc3cccc4cccnc34)C2)s1` [Example 205, (trans)-N-(5-(Prop-1-en-2-yl)thiazol-2-yl)-3-(quinolin-8-yloxy)cyclobutanecarboxamide], `Cc1cnc(NC(=O)[C@H]2C[C@H](Oc3cccc4cccnc34)C2)s1` [Example 217, (trans)-N-(5-Methylthiazol-2-yl)-3-(quinolin-8-yloxy)cyclobutanecarboxamide] is higher in IC50: < 0.01 µM for the first, 0.01 to 0.0794 µM for the second.

First: CC(C)c1csc(NC(=O)[C@H]2C[C@H](Oc3cccc4cccnc34)C2)n1 [Example 206, (trans)-N-(4-Isopropylthiazol-2-yl)-3-(quinolin-8-yloxy)cyclobutanecarboxamide]
Second: Cc1csc(NC(=O)[C@H]2C[C@H](Oc3cccc4cccnc34)C2)n1 [Example 218, (trans)-N-(4-Methylthiazol-2-yl)-3-(quinolin-8-yloxy)cyclobutanecarboxamide]
The IC50 of the first is lower: < 0.01 µM for the first, 0.01 to 0.0794 µM for the second.

Compared with `O=C(Nc1nc(C2CC2)cs1)[C@H]1C[C@H](Oc2cccc3cccnc23)C1` [Example 207, (trans)-N-(4-Cyclopropylthiazol-2-yl)-3-(quinolin-8-yloxy)cyclobutanecarboxamide], `O=C(Nc1nc(CO)cs1)[C@H]1C[C@H](Oc2cccc3cccnc23)C1` [Example 215, (trans)-N-(4-(Hydroxymethyl)thiazol-2-yl)-3-(quinolin-8-yloxy)cyclobutanecarboxamide] is higher in IC50: < 0.01 µM for the first, 0.01 to 0.0794 µM for the second.

First: O=C(Nc1ncco1)[C@H]1C[C@H](Oc2cccc3cccnc23)C1 [Example 208, (trans)-N-(Oxazol-2-yl)-3-(quinolin-8-yloxy)cyclobutanecarboxamide]
Second: O=C(Nc1nncs1)[C@H]1C[C@H](Oc2cccc3cccnc23)C1 [Example 216, (trans)-3-(Quinolin-8-yloxy)-N-(1,3,4-thiadiazol-2-yl)cyclobutanecarboxamide]
The IC50 of the first is higher: 0.1 to 1 µM for the first, 0.01 to 0.0794 µM for the second.

`CC(C)(O)Cc1csc(NC(=O)[C@H]2C[C@H](Oc3cccc4cccnc34)C2)n1` [Example 209, (trans)-N-(4-(2-Hydroxy-2-methylpropyl)thiazol-2-yl)-3-(quinolin-8-yloxy)cyclobutanecarboxamide trifluoroacetic acid salt] and `CC(C)(C)c1csc(NC(=O)[C@H]2C[C@H](Oc3cccc4cccnc34)C2)n1` [Example 211, (trans)-N-(4-(tert-Butyl)thiazol-2-yl)-3-(quinolin-8-yloxy)cyclobutanecarboxamide] fall in the same range of IC50: 0.01 to 0.0794 µM for the first, 0.01 to 0.0794 µM for the second.

`O=C(Nc1ncc(CO)s1)[C@H]1C[C@H](Oc2cccc3cccnc23)C1` [Example 210, (trans)-N-(5-(Hydroxymethyl)thiazol-2-yl)-3-(quinolin-8-yloxy)cyclobutanecarboxamide] and `CC(C)(O)Cc1cnc(NC(=O)[C@H]2C[C@H](Oc3cccc4cccnc34)C2)s1` [Example 213, (trans)-N-(5-(2-Hydroxy-2-methylpropyl)thiazol-2-yl)-3-(quinolin-8-yloxy)cyclobutanecarboxamide] fall in the same range of IC50: 0.01 to 0.0794 µM for the first, 0.01 to 0.0794 µM for the second.

`Cn1nc(C2CC2)cc1NC(=O)[C@H]1C[C@H](Oc2cccc3cccnc23)C1` [Example 214, (trans)-N-(3-Cyclopropyl-1-methyl-1H-pyrazol-5-yl)-3-(quinolin-8-yloxy)cyclobutanecarboxamide] and `CS(=O)(=O)N1CCC(NC(=O)[C@H]2C[C@H](Oc3cccc4cccnc34)C2)CC1` [Example 219, (trans)-N-(1-(Methylsulfonyl)piperidin-4-yl)-3-(quinolin-8-yloxy)cyclobutanecarboxamide] fall in the same range of IC50: 0.1 to 1 µM for the first, 0.1 to 1 µM for the second.

First: CC(C)(O)CO[C@H]1CC[C@H](NC(=O)[C@H]2C[C@H](Oc3cccc4cccnc34)C2)CC1 [Example 220, (trans)-N-((trans)-4-(2-Hydroxy-2-methylpropoxy)cyclohexyl)-3-(quinolin-8-yloxy)cyclobutanecarboxamide]
Second: CC(C)(O)[C@H]1CC[C@H](NC(=O)[C@H]2C[C@H](Oc3cccc4cccnc34)C2)CC1 [Example 225, N-((trans)-4-(2-Hydroxypropan-2-yl)cyclohexyl)-3-(quinolin-8-yloxy)cyclobutanecarboxamide]
The IC50 of the first is higher: 0.1 to 1 µM for the first, 0.01 to 0.0794 µM for the second.

`O=C(Nc1nccs1)[C@H]1C[C@H](Nc2cccc3cccnc23)C1` [Example 221, (trans)-3-(Quinolin-8-ylamino)-N-(thiazol-2-yl)cyclobutanecarboxamide] and `CC(C)(O)[C@H]1CC[C@H](NC(=O)[C@H]2C[C@H](Nc3cccc4cccnc34)C2)CC1` [Example 222, (trans)-N-((trans)-4-(2-Hydroxypropan-2-yl)cyclohexyl)-3-(quinolin-8-ylamino)cyclobutanecarboxamide] fall in the same range of IC50: 0.1 to 1 µM for the first, 0.1 to 1 µM for the second.

Compared with `CC(C)(O)[C@H]1C[C@H](NC(=O)[C@H]2C[C@H](Oc3cccc4cccnc34)C2)C1` [Example 223, (trans)-N-((trans)-3-(2-Hydroxypropan-2-yl)cyclobutyl)-3-(quinolin-8-yloxy)cyclobutanecarboxamide], `O=C(NC1CCN(CC(F)(F)F)CC1)[C@H]1C[C@H](Oc2cccc3cccnc23)C1` [Example 224, (trans)-3-(Quinolin-8-yloxy)-N-(1-(2,2,2-trifluoroethyl)piperidin-4-yl)cyclobutanecarboxamide] is lower in IC50: 0.1 to 1 µM for the first, 0.01 to 0.0794 µM for the second.

First: CC(C)(O)[C@H]1CC[C@H](NC(=O)N2CC(Oc3csc4cccnc34)C2)CC1 [Example 226, N-((trans)-4-(2-Hydroxypropan-2-yl)cyclohexyl)-3-(thieno[3,2-b]pyridin-3-yloxy)azetidine-1-carboxamide]
Second: CC(C)(O)[C@H]1CC[C@H](NC(=O)[C@H]2C[C@H](Oc3cc(F)ccc3F)C2)CC1 [Example 229, (trans)-3-(2,5-Difluorophenoxy)-N-((trans)-4-(2-hydroxypropan-2-yl)cyclohexyl)cyclobutanecarboxamide]
The IC50 of the first is lower: 0.01 to 0.0794 µM for the first, 0.1 to 1 µM for the second.

Compared with `CC(C)(O)[C@H]1CC[C@H](NC(=O)[C@H]2C[C@H](Oc3cc(F)cc4ccoc34)C2)CC1` [Example 227, (trans)-3-((5-Fluorobenzofuran-7-yl)oxy)-N-((trans)-4-(2-hydroxypropan-2-yl)cyclohexyl)cyclobutanecarboxamide], `CC(C)(O)[C@H]1CC[C@H](NC(=O)[C@H]2C[C@H](Oc3cc(F)ccc3Cl)C2)CC1` [Example 230, (trans)-3-(2-Chloro-5-fluorophenoxy)-N-((trans)-4-(2-hydroxypropan-2-yl)cyclohexyl)cyclobutanecarboxamide] is higher in IC50: 0.01 to 0.0794 µM for the first, 0.1 to 1 µM for the second.

First: CC(C)(O)[C@H]1CC[C@H](NC(=O)[C@H]2C[C@H](Oc3cccc(Br)c3)C2)CC1 [Example 228, (trans)-3-(3-Bromophenoxy)-N-((trans)-4-(2-hydroxypropan-2-yl)cyclohexyl)cyclobutanecarboxamide]
Second: Cc1cnnc(N2CC(NC(=O)[C@H]3C[C@H](Oc4cccc5scnc45)C3)C2)c1 [Example 241, (trans)-3-(Benzo[d]thiazol-4-yloxy)-N-(1-(5-methylpyridazin-3-yl)azetidin-3-yl)cyclobutanecarboxamide, trifluoroacetic acid salt]
The IC50 of the first is higher: 0.1 to 1 µM for the first, 0.01 to 0.0794 µM for the second.

`Cc1ccc(N2CC(NC(=O)[C@H]3C[C@H](Oc4cc(F)cc5scnc45)C3)C2)nc1` [Example 231, (trans)-3-((6-Fluorobenzo[d]thiazol-4-yl)oxy)-N-(1-(5-methylpyridin-2-yl)azetidin-3-yl)cyclobutanecarboxamide] and `Cc1ccc(N2CC(NC(=O)N3CC(Oc4cc(F)cc5scnc45)C3)C2)nc1` [Example 232, 3-((6-Fluorobenzo[d]thiazol-4-yl)oxy)-N-(1-(5-methylpyridin-2-yl)azetidin-3-yl)azetidine-1-carboxamide] fall in the same range of IC50: 0.01 to 0.0794 µM for the first, 0.01 to 0.0794 µM for the second.

`CCC(=O)C1CC2(CC(NC(=O)[C@H]3C[C@H](Oc4cc(F)cc5scnc45)C3)C2)C1` (stereo partly drawn) [Example 233, (trans)-3-((6-Fluorobenzo[d]thiazol-4-yl)oxy)-N-(6-propionylspiro[3.31]heptan-2-yl)cyclobutanecarboxamide] and `O=C(NC1CN(c2cnccn2)C1)[C@H]1C[C@H](Oc2cc(F)cc3scnc23)C1` [Example 235, (trans)-3-((6-Fluorobenzo[d]thiazol-4-yl)oxy)-N-(1-(pyrazin-2-yl)azetidin-3-yl)cyclobutanecarboxamide] fall in the same range of IC50: 0.01 to 0.0794 µM for the first, 0.01 to 0.0794 µM for the second.

`CCOCCNC(=O)c1ccc(N2CC(NC(=O)[C@H]3C[C@H](Oc4cc(F)cc5scnc45)C3)C2)nn1` [Example 234, N-(2-Ethoxyethyl)-6-(3-((trans)-3-((6-fluorobenzo[d]thiazol-4-yl)oxy)cyclobutanecarboxamido)azetidin-1-yl)pyridazine-3-carboxamide] and `Cc1ccc(N2CC(NC(=O)[C@H]3C[C@H](Oc4cccc5scnc45)C3)C2)nc1` [Example 239, (trans)-3-(Benzo[d]thiazol-4-yloxy)-N-(1-(5-methylpyridin-2-yl)azetidin-3-yl)cyclobutanecarboxamide] fall in the same range of IC50: 0.01 to 0.0794 µM for the first, 0.01 to 0.0794 µM for the second.

`CC1(NC(=O)[C@H]2C[C@H](Oc3cc(F)cc4scnc34)C2)CN(c2cccnn2)C1` [Example 237, (trans)-3-((6-Fluorobenzo[d]thiazol-4-yl)oxy)-N-(3-methyl-1-(pyridazin-3-yl)azetidin-3-yl)cyclobutanecarboxamide] and `CC1(NC(=O)[C@H]2C[C@H](Oc3cc(F)cc4scnc34)C2)CN(c2ncccn2)C1` [Example 238, (trans)-3-((6-Fluorobenzo[d]thiazol-4-yl)oxy)-N-(3-methyl-1-(pyrimidin-2-yl)azetidin-3-yl)cyclobutanecarboxamide] fall in the same range of IC50: 0.1 to 1 µM for the first, 0.1 to 1 µM for the second.

`CS(=O)(=O)c1ccc(NC(=O)[C@H]2C[C@H](Oc3cccc4scnc34)C2)cc1` [Example 242, (trans)-3-(Benzo[d]thiazol-4-yloxy)-N-(4-(methylsulfonyl)phenyl)cyclobutanecarboxamide] was tested, and the IC50 was 0.01 to 0.0794 µM.
